According to patent US20230021483A1, “[…] […] METHOD AND CLASSIFICATION OF PHARMACEUTICAL COMPONENTS BY USING TRANSCRIPTOMES” (National Institutes of Biomedical Innovation, Health and …, priority 2016, published 2023):

Legend:
[1] = test system: liver (LV); test: Whole organ transcriptome (GeneChip microarray) of liver 6 h after adjuvant administration: sDEGs, hierarchical clustering; format: in vivo, C57BL/6 mice; conditions: hierarchical clustering, liver; note: key: G1 (interferon signaling); G2 (metabolism of lipids and lipoproteins); G3 (response to stress); G4 (response to wounding); G5 (phosphate-containing compound metabolic process); G6 (phagosome)
[2] = test system: adjuvant-associated biological themes in LV, SP, LN; conditions: LV, ID
Text: A defined sets of genes were selected according to specified criteria (e.g., FC, PA-call, threshold values). Their functional enrichment values were then obtained from TargetMine (Chen, Y. A., Tripathi, L. P. & Mizuguchi, K. PloS one 6, e17844 (2011)) (http://targetmine.mizuguchilab.org/) using the API interface. The following resources were used throughout the analysis via TargetMine Interface (GO, GOSlim, Integrated Pathway, KEGG, Reactome, and the NCI pathway). The Holm-Bonferroni method was used for multiple testing corrections.
Whole organ transcriptome data for each organ from each mouse were analyzed as follows to obtain biological themes for individual samples from each adjuvant-administered group of three mice. […] A set of Pj genes was first defined, where eij/ei(c)>2.0. Biological themes enriched within Pj were then identified using TargetMine (Chen, Y. A. et al., PloS one 6, e17844 (2011)) (http://targetmine.mizuguchilab.org/). Tj denote the resulting list of biological themes, with associated p-values from Fischer's exact test.
Next, the biological themes called by all the individual samples in the group were scored as follows. Having obtained three lists (T1, T2 and T3) for a given experimental condition, a consensus list T of themes was created as T={(t1, p1), (t2, p2), . . . }, where ti is a biological theme that appears in all of T1, T2 and T3, and pi is the smallest of the associated p-values. Only the themes with the p-value of <0.05 were included in T.
To summarize the biological themes in T further, a list of terms considered to be associated with adjuvant activity in general was separately prepared. AT={at1, at2, . . . }, where ati is a pre-selected adjuvant-associated term (e.g., “stress” or “cytokine”). Finally, an enrichment score S for an adjuvant-associated term ati was defined as: S(ati)=Σ−log(pj), where the name of tj in T includes a term ati as a substring and pj is the associated p-value.
This scoring scheme summarizes the relative enrichment of pre-selected adjuvant-associated terms in genes responding to each adjuvant in each organ.

CCOCc1nc2c(N)nc3ccccc3c2n1CC(C)(C)O [R848, 4-amino-2-(ethoxymethyl)-a,a-dimethyl-1H-imidazo[4,5-c]quinoline-1-ethanol]
adjuvant group (cluster) in LV [1]: G1
IFN alpha, GO annotation line 1 of 5 [2]: 10.2
IFN alpha, GO annotation line 2 of 5 [2]: 3.15
IFN alpha: cellular response to interferon-alpha [2]: 0
IFN alpha: positive regulation of interferon-alpha production [2]: 0
IFN alpha: regulation of interferon-alpha production [2]: 0
IFN beta: cellular response to interferon-beta [2]: 17.9
IFN beta: interferon-beta production [2]: 7.51
IFN beta: positive regulation of interferon-beta production [2]: 6.66
IFN beta: regulation of interferon-beta production [2]: 5.68
IFN beta: response to interferon-beta [2]: 23.9
IFN gamma: cellular response to interferon-gamma [2]: 11.2
IFN gamma: interferon-gamma production [2]: 0
IFN gamma: regulation of interferon-gamma production [2]: 0
IFN gamma: response to interferon-gamma [2]: 15.7
NF-kappa B signaling pathway, GO annotation line 1 of 4 [2]: 8.86
NF-kappa B signaling pathway, GO annotation line 2 of 4 [2]: 7.93
NF-kappa B signaling pathway, GO annotation line 3 of 4 [2]: 5.3
NF-kappa B signaling pathway, GO annotation line 4 of 4 [2]: 5.28
TNF signaling pathway [2]: 16.1
adaptive immune response, GO annotation line 1 of 5 [2]: 4.42
adaptive immune response, GO annotation line 2 of 5 [2]: 6.23
adaptive immune response, GO annotation line 3 of 5 [2]: 4.06
adaptive immune response, GO annotation line 4 of 5 [2]: 0
adaptive immune response, GO annotation line 5 of 5 [2]: 0
apoptosis, GO annotation line 1 of 8 [2]: 18.6
apoptosis, GO annotation line 2 of 8 [2]: 15.5
apoptosis, GO annotation line 3 of 8 [2]: 10.6
apoptosis, GO annotation line 4 of 8 [2]: 5.18
apoptosis, GO annotation line 5 of 8 [2]: 4.1
apoptosis, GO annotation line 6 of 8 [2]: 5.48
apoptosis, GO annotation line 7 of 8 [2]: 0
apoptosis, GO annotation line 8 of 8 [2]: 0
cell death, GO annotation line 1 of 9 [2]: 23.1
cell death, GO annotation line 2 of 9 [2]: 18.3
cell death, GO annotation line 3 of 9 [2]: 19.4
cell death, GO annotation line 4 of 9 [2]: 15.5
cell death, GO annotation line 5 of 9 [2]: 15.5
cell death, GO annotation line 6 of 9 [2]: 4.66
cell death, GO annotation line 7 of 9 [2]: 4.64
cell death, GO annotation line 8 of 9 [2]: 0
cell death, GO annotation line 9 of 9 [2]: 0
chemokine, GO annotation line 1 of 4 [2]: 3.95
chemokine, GO annotation line 2 of 4 [2]: 0
chemokine, GO annotation line 3 of 4 [2]: 0
chemokine, GO annotation line 4 of 4 [2]: 0
chemotaxis, GO annotation line 1 of 11 [2]: 11
chemotaxis, GO annotation line 2 of 11 [2]: 0
chemotaxis, GO annotation line 3 of 11 [2]: 8.03
chemotaxis, GO annotation line 4 of 11 [2]: 3.91
chemotaxis, GO annotation line 5 of 11 [2]: 0
chemotaxis, GO annotation line 6 of 11 [2]: 4.44
chemotaxis, GO annotation line 7 of 11 [2]: 3.7
chemotaxis, GO annotation line 8 of 11 [2]: 3.31
chemotaxis, GO annotation line 9 of 11 [2]: 0
chemotaxis, GO annotation line 10 of 11 [2]: 3.62
chemotaxis, GO annotation line 11 of 11 [2]: 0
cytokine, GO annotation line 1 of 17 [2]: 44.8
cytokine, GO annotation line 2 of 17 [2]: 30.5
cytokine, GO annotation line 3 of 17 [2]: 30.4
cytokine, GO annotation line 4 of 17 [2]: 11.1
cytokine, GO annotation line 5 of 17 [2]: 30.4
cytokine, GO annotation line 6 of 17 [2]: 26.5
cytokine, GO annotation line 7 of 17 [2]: 16.5
cytokine, GO annotation line 8 of 17 [2]: 5.44
cytokine, GO annotation line 9 of 17 [2]: 4.8
cytokine, GO annotation line 10 of 17 [2]: 20.3
cytokine, GO annotation line 11 of 17 [2]: 5.01
cytokine, GO annotation line 12 of 17 [2]: 0
cytokine, GO annotation line 13 of 17 [2]: 5.55
cytokine, GO annotation line 14 of 17 [2]: 6.84
cytokine, GO annotation line 15 of 17 [2]: 0
cytokine, GO annotation line 16 of 17 [2]: 0
cytokine, GO annotation line 17 of 17 [2]: 0
defense response, GO annotation line 1 of 11 [2]: 71.2
defense response, GO annotation line 2 of 11 [2]: 50.3
defense response, GO annotation line 3 of 11 [2]: 33.9
defense response, GO annotation line 4 of 11 [2]: 46.5
defense response, GO annotation line 5 of 11 [2]: 18.6
defense response, GO annotation line 6 of 11 [2]: 8.29
defense response, GO annotation line 7 of 11 [2]: 5.54
defense response, GO annotation line 8 of 11 [2]: 20
defense response, GO annotation line 9 of 11 [2]: 6.02
defense response, GO annotation line 10 of 11 [2]: 4.72
defense response, GO annotation line 11 of 11 [2]: 0
immune response, GO annotation line 1 of 8 [2]: 54.5
immune response, GO annotation line 2 of 8 [2]: 27.8
immune response, GO annotation line 3 of 8 [2]: 34.2
immune response, GO annotation line 4 of 8 [2]: 14.6
immune response, GO annotation line 5 of 8 [2]: 12.6
immune response, GO annotation line 6 of 8 [2]: 15.1
immune response, GO annotation line 7 of 8 [2]: 0
immune response, GO annotation line 8 of 8 [2]: 0
inflammatory response, GO annotation line 1 of 5 [2]: 22.2
inflammatory response, GO annotation line 2 of 5 [2]: 6.29
inflammatory response, GO annotation line 3 of 5 [2]: 0
inflammatory response, GO annotation line 4 of 5 [2]: 0
inflammatory response, GO annotation line 5 of 5 [2]: 0
innate immune response, GO annotation line 1 of 6 [2]: 49.6
innate immune response, GO annotation line 2 of 6 [2]: 37.9
innate immune response, GO annotation line 3 of 6 [2]: 22.9
innate immune response, GO annotation line 4 of 6 [2]: 17.9
innate immune response, GO annotation line 5 of 6 [2]: 13.8
innate immune response, GO annotation line 6 of 6 [2]: 8.91
interleukin-6: interleukin-6 production [2]: 7.8
interleukin-6: positive regulation of interleukin-6 production [2]: 4.53
interleukin-6: regulation of interleukin-6 production [2]: 6.67
interleukin-12: interleukin-12 production [2]: 0
interleukin-12: positive regulation of interleukin-12 production [2]: 0
interleukin-12: regulation of interleukin-12 production [2]: 0
migration, GO annotation line 1 of 10 [2]: 8.03
migration, GO annotation line 2 of 10 [2]: 0
migration, GO annotation line 3 of 10 [2]: 7.89
migration, GO annotation line 4 of 10 [2]: 5.8
migration, GO annotation line 5 of 10 [2]: 3.14
migration, GO annotation line 6 of 10 [2]: 3.96
migration, GO annotation line 7 of 10 [2]: 3.31
migration, GO annotation line 8 of 10 [2]: 0
migration, GO annotation line 9 of 10 [2]: 0
migration, GO annotation line 10 of 10 [2]: 0
stress, GO annotation line 1 of 3 [2]: 63.8
stress, GO annotation line 2 of 3 [2]: 45.6
stress, GO annotation line 3 of 3 [2]: 0
wounding, GO annotation line 1 of 3 [2]: 11.1
wounding, GO annotation line 2 of 3 [2]: 9.74
wounding, GO annotation line 3 of 3 [2]: 4.53
